Results from publication PMC9241695, “Selective Metal Chelation by a Thiosemicarbazone Derivative Interferes with Mitochondrial Respiration and Ribosome Biogenesis in Candida albicans” (Microbiology Spectrum, 2022).
≈ marks a conversion by molar mass, not a printed value.

Assays:
C. albicans SC5314 [1] = experiment: Antifungal susceptibility testing, microbroth dilution MIC; assay type: cell-based; details: Candida albicans, SC5314; C. albicans wild-type strain; RPMI1640, 35°C, 24 h; read-out: MIC (μg/mL) against fungi SC5314
Summary of the method: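 CLSI microbroth dilution in RPMI1640, final drug range 0.0156–64 μg/mL. Inocula 1 × 10^3 CFU/mL for C. albicans and C. neoformans, 1 × 10^4 CFU/mL for A. fumigatus; 35°C for 24 h (C. albicans) or 48 h (C. neoformans, A. fumigatus). MIC read as visible growth inhibition versus control, in duplicate.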

A. fumigatus 1161 = experiment: Microbroth dilution MIC80; assay type: cell-based; details: Aspergillus fumigatus, 1161
From the text: (§1) Compound library. The thiosemicarbazone derivatives Triapine and COTI-2 were purchased from Med Chem Express (MCE). The other 87 thiosemicarbazones used in this study were previously synthesized by our collaborators (1, 2). Their structures are shown in Table 1 and Table S1 to help the reader clearly understand the relationship between structure and activity.
(§2) Strains and culture conditions. Clinically derived C. albicans isolates, including G5, F5, and Gu5, were kindly provided by Professor Joachim Morschhäuser of the University of Würzburg. Other clinical C. albicans isolates were kindly donated by Professor Qingguo Qi of Shandong University and Qianfoshan Hospital of Shandong Province Other Candida strains were obtained from Jinan Central Hospital.
(§3) The zap1 mutant and its complemented strain were kindly provided by Professor Aaron P. Mitchell of Carnegie Mellon University (3). The C. neoformans strains used in this study was kindly donated by Professor Guojian Liao of Southwest University and A. fumigatus strain used in this study was provided by Professor Ling Lu of Nanjing Normal University. Before in vitro and in vivo experiments, all C. albicans strains were grown on YPD agar plates. After culturing at 30°C for 24 h, colonies of each strain were cultured in liquid YPD medium at 30°C with continuous shaking […]
(§4) Antifungal susceptibility testing. To determine in vitro antifungal activities, the microbroth dilution method was carried out in RPMI1640 medium according to the guidelines of the Clinical and Laboratory Standards Institute (4, 5). The initial concentration in RPMI1640 medium was 1 × 10^3 CFU/mL for the C. albicans and C. neoformans suspensions but 1 × 10^4 CFU/mL for A. fumigatus. The range of final drug concentrations was 0.0156–64 μg/mL. The plates were incubated at35°C for 24 […]
(§5) h (for C. albicans, C. krusei, C. tropicalis, C. parapsilosis) or 48 h (for C. neoformans, A. fumigatus). The MIC was determined based on visible growth inhibition compared with the control. All experiments were performed in duplicate. […]

C. albicans 11e = experiment: Microbroth dilution MIC80; assay type: cell-based; details: Candida albicans, 11E
From the text: as §1, §2, §3, §4, §5

C. albicans 11f = experiment: Microbroth dilution MIC80; assay type: cell-based; details: Candida albicans, 11F
From the text: as §1, §2, §3, §4, §5

C. albicans 24g = experiment: Microbroth dilution MIC80; assay type: cell-based; details: Candida albicans, 24G
From the text: as §1, §2, §3, §4, §5

C. albicans 28A = experiment: Microbroth dilution MIC80; assay type: cell-based; details: Candida albicans, 28A
From the text: as §1, §2, §3, §4, §5

C. albicans 28D = experiment: Microbroth dilution MIC80; assay type: cell-based; details: Candida albicans, 28D
From the text: as §1, §2, §3, §4, §5

C. albicans 28I = experiment: Microbroth dilution MIC80; assay type: cell-based; details: Candida albicans, 28I
From the text: as §1, §2, §3, §4, §5

C. albicans CA1 = experiment: Microbroth dilution MIC80; assay type: cell-based; details: Candida albicans, CA1
From the text: as §1, §2, §3, §4, §5

C. albicans CA3 = experiment: Microbroth dilution MIC80; assay type: cell-based; details: Candida albicans, CA3
From the text: as §1, §2, §3, §4, §5

C. albicans CA4 = experiment: Microbroth dilution MIC80; assay type: cell-based; details: Candida albicans, CA4
From the text: as §1, §2, §3, §4, §5

C. albicans DSY654 = experiment: Microbroth dilution MIC80; assay type: cell-based; details: Candida albicans
From the text: as §1, §2, §3, §4, §5

C. albicans F5 = experiment: Microbroth dilution MIC80; assay type: cell-based; details: Candida albicans, F5
From the text: as §1, §2, §3, §4, §5

C. albicans YEM13 = experiment: Microbroth dilution MIC80; assay type: cell-based; details: Candida albicans
From the text: as §1, §2, §3, §4, §5

C. albicans YEM15 = experiment: Microbroth dilution MIC80; assay type: cell-based; details: Candida albicans, YEM15
From the text: as §1, §2, §3, §4, §5

C. neoformans 108 = experiment: Microbroth dilution MIC80; assay type: cell-based; details: Cryptococcus neoformans, 108
From the text: as §1, §2, §3, §4, §5

C. tropicalis CT2 = experiment: Microbroth dilution MIC80; assay type: cell-based; details: Candida tropicalis, CT2
From the text: as §1, §2, §3, §4, §5

C. albicans SC5314 [2] = experiment: G. mellonella infection model; assay type: in vivo, Galleria mellonella; details: 19ak 0.4 μg per larva, FLC 2 μg per larva
Experimental: The G. mellonella infection model was used to evaluate the in vivo activity of 19ak in terms of survival, fungal burden, and histological features. A total of 60 larvae of similar size were selected and randomly allocated to four groups. The last right foreleg of each larva was injected with 10 μL of C. albicans SC5314 suspension (2 × 10^7 CFU/mL). Two hours after infection, the larvae were injected with 10 μL of drug or vehicle as follows for the four groups: 19ak (0.4 μg per larva), FLC (2 μg per larva), control (PBS), and blank control (no injection with C. albicans but injections of sterile PBS twice). The data for the blank control are not shown because this group survived well during the experiment. Failure to respond to light contact with forceps was considered a sign of larval death. In the survival assay, the number of surviving larvae in each group was calculated at the same time every day for 4 days.
To determine fungal burden, larval infection and treatment were performed as described above with groups of 30 larvae each. Each day, five larvae were randomly selected from each group and homogenized with glass beads in 0.5 mL of sterile PBS. The homogenate was serially diluted with sterile PBS, and 5 μL was spread on a yeast-peptone-dextrose solid plate ([62]). Experiments were performed at least three times independently.
We also conducted histopathological studies to explore the therapeutic effects of the drugs on G. mellonella fungal infection. First, the groups of larvae were infected as described above. After 48 h, three larvae from each group were randomly selected and fixed in 4% paraformaldehyde for sectioning and Periodic acid-Schiff (PAS) staining. The tissue was observed and photographed under an Olympus microscope with 40 × magnification (IX71, Olympus, Tokyo, Japan). The experiments were performed independently a minimum of three times.

G. mellonella = experiment: Toxicity of 19ak in G. mellonella larvae; assay type: in vivo, Galleria mellonella; details: 10 μg per larva, 4 days
Experimental: Larvae of normal size and in good condition were injected with 10 μL of 19ak (1 mg/mL) or PBS. The survival of the larvae was monitored daily for 4 days.

C/C(=N\NC(=S)N(C)C)c1ccccn1 [Compound 19ak]
MIC (C. albicans SC5314 [1]): 0.125 µg/mL (≈ 0.562 µM)
MIC80 (A. fumigatus 1161): 0.5 µg/mL (≈ 2.25 µM)
MIC80 (C. albicans 11e): 1 µg/mL (≈ 4.5 µM)
MIC80 (C. albicans 11f): 1 µg/mL (≈ 4.5 µM)
MIC80 (C. albicans 24g): 0.25 µg/mL (≈ 1.12 µM)
MIC80 (C. albicans 28A): 0.125 µg/mL (≈ 0.562 µM)
MIC80 (C. albicans 28D): 0.125 µg/mL (≈ 0.562 µM)
MIC80 (C. albicans 28I): 0.125 µg/mL (≈ 0.562 µM)
MIC80 (C. albicans CA1): 0.25 µg/mL (≈ 1.12 µM)
MIC80 (C. albicans CA3): 0.125 µg/mL (≈ 0.562 µM)
MIC80 (C. albicans CA4): 0.125 µg/mL (≈ 0.562 µM)
MIC80 (C. albicans DSY654): 0.125 µg/mL (≈ 0.562 µM)
MIC80 (C. albicans F5): 0.5 µg/mL (≈ 2.25 µM)
MIC80 (C. albicans YEM13): 0.5 µg/mL (≈ 2.25 µM)
MIC80 (C. albicans YEM15): 0.25 µg/mL (≈ 1.12 µM)
MIC80 (C. neoformans 108): 0.25 µg/mL (≈ 1.12 µM)
MIC80 (C. tropicalis CT2): 0.5 µg/mL (≈ 2.25 µM)
Histopathology of infected larvae (C. albicans SC5314 [2]; 48 h, PAS staining): fewer infected areas
Fungal burden of infected larvae (C. albicans SC5314 [2]; compared with the control group): greatly reduced the fungal burden
Survival rate of infected larvae (C. albicans SC5314 [2]; after 4 days of infection, 2 h after infection): 67%
Survival of uninfected larvae (toxicity) (G. mellonella): all treated larvae were still alive
